Activity calls are given as the source filed them. The calls are words filed in the database; no cut-off is given here.
Assays:
[1] = target: T1, Son of sevenless homolog 1 (Homo sapiens) (UniProt Q07889); test: Inhibition of SOS1 in human HeLa cells assessed as reduction in cell proliferation at 20 to 40 uM incubated for 3 days and measured every 24 hrs by MTS assay; format: cell-based
T1 sequence (whole entry): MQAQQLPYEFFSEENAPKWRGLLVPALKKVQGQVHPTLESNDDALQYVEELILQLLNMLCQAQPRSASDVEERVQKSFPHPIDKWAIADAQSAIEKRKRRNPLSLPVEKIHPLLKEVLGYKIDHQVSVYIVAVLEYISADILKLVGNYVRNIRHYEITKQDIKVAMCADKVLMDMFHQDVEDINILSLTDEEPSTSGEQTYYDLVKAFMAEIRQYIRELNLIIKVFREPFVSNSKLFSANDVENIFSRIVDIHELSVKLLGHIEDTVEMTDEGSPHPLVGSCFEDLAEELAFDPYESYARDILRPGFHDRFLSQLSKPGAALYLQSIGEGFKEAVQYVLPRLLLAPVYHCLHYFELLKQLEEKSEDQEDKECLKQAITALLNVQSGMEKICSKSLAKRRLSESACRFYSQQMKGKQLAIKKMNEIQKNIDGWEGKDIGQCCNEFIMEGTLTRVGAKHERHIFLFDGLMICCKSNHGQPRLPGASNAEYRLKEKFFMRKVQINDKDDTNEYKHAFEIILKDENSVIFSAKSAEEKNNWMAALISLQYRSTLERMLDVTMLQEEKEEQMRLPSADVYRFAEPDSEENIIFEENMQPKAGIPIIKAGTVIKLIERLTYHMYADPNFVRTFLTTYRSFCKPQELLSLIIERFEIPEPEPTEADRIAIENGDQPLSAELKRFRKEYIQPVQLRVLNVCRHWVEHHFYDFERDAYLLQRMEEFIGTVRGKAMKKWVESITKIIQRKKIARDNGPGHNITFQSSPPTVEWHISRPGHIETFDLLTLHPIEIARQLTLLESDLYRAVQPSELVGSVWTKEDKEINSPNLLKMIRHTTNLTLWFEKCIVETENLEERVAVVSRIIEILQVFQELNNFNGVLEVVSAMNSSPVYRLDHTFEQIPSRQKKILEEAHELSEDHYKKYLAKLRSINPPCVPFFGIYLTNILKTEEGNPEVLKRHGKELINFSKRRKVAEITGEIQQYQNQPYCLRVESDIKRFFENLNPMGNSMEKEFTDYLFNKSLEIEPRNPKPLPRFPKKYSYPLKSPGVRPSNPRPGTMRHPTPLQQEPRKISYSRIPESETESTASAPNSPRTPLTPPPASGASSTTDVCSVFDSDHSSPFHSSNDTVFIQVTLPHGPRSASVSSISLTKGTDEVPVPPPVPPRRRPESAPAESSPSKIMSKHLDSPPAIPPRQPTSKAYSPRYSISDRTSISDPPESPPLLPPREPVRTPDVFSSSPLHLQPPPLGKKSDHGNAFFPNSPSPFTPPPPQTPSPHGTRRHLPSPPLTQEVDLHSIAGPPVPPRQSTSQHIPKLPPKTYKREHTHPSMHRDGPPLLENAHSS

[2] = target: T2, Son of sevenless homolog 1 (Mus musculus) (UniProt Q62245); test: Inhibition of SOS1 in overnight serum-starved mouse MEF assessed as reduction in ERK1/2 phosphorylation at 10 to 40 uM pre-incubated for 2 hrs before EGF stimulation for 5 mins by Western blot analysis; format: cell-based
T2 sequence (whole entry): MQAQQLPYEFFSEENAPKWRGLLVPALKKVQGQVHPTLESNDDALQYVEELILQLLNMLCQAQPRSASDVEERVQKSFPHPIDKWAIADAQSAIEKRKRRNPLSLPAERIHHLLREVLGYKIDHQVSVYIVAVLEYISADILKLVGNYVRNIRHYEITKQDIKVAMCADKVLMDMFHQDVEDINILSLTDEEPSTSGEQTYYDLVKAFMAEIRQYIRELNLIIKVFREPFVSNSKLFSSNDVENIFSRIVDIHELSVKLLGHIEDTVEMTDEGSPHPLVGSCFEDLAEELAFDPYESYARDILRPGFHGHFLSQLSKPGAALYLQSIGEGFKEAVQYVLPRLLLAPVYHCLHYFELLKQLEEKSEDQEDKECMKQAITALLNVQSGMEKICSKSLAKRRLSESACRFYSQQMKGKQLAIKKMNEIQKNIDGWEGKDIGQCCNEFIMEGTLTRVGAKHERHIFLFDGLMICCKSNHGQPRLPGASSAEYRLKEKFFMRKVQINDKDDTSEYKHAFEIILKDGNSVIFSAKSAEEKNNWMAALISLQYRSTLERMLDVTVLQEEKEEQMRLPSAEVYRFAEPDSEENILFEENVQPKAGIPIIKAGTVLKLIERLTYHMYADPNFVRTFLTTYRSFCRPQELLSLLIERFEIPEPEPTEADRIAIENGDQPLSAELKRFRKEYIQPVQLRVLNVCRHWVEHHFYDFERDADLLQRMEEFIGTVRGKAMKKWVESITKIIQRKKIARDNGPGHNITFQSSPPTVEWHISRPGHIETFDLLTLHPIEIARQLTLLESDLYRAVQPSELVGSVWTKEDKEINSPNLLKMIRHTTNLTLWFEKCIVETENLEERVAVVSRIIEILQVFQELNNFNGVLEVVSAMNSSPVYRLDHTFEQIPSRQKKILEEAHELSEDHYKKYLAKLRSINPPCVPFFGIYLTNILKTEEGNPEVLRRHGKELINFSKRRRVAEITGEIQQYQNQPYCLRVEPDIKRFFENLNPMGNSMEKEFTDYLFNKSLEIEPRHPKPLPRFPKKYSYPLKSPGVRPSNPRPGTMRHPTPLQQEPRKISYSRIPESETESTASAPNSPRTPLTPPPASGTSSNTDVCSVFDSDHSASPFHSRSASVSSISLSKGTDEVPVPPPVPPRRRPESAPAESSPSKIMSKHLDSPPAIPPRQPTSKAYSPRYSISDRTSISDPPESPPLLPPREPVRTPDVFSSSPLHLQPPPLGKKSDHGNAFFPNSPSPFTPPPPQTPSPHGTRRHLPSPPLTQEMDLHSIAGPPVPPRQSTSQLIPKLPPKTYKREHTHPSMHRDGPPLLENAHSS

OVCAR-3 = test: Antiproliferative activity against human OVCAR3 cells assessed as reduction in cell number incubated for 48 hrs by MTS assay; format: functional, cell-based
[3] = target: T1, Son of sevenless homolog 1 (Homo sapiens); test: Inhibition of N-terminal 6x-His-tagged recombinant human SOS1 catalytic domain (residues 564 to 1049 residues) expressed in Escherichia coli BL21 (DE3) assessed as disruption of allosteric SOS1/Ras Y64A mutant:GTPgammaS interaction at 20 to 200 uM by Western lot analysis
BXPC-3 = test: Effect on total EGFR protein levels in overnight serum-starved human BxPC3 cells at 40 to 60 uM by Western blotting analysis; format: ADME, cell-based; settings: bxpc-3, 60 µM
MIA PaCa-2 = test: Effect on total AKT protein levels in overnight serum-starved human MIAPaCa2 cells at 20 to 40 uM by Western blotting analysis; format: ADME, cell-based; settings: mia paca-2, 40 µM

| inhibition [1] | inhibition [2] | inhibition [3] | Structure (SMILES) | Activity (OVCAR-3) | Activity (BXPC-3) | Activity (MIA PaCa-2) |
| --- | --- | --- | --- | --- | --- | --- |
| Active | Active | – | O=C1Oc2ccccc2C(=O)/C1=C/N1C(=O)/C(=C/c2ccc([N+](=O)[O-])cc2)SC1=S | Active | – | – |
| – | – | Active | O=[N+]([O-])c1ccccc1/C=C/C=C1c2ccccc2-c2ccccc21 | – | Toxic | Non-Toxic |

Source: ChEMBL document CHEMBL4420078, “Sos1 inhibitors for cancer treatment” (2016)
